Experiments:
Type in all cases: cell-based, human
KIR2DL2 promoter [1] = assay: KIR2DL2 promoter reporter construct assay in T cells
Procedure: Reporter construct assays. Amplified KIR promoter fragments were subcloned into the EcoRI site of the promoterless pmaxFP-Yellow-PRL vector (Amaxa GmbH). Plasmids were purified using QIAGEN EndoFree Plasmid Kits (QIAGEN), and 2 μg of DNA transfected into untreated or 5-azaC treated human T cells using the human T cell nucleofector kit (Amaxa GmbH) and the manufacturer's protocol. Controls included cotransfection with pmaxGFP (Amaxa GmbH) and transfection with the promoterless reporter vector. Fluorescence was measured by flow cytometry. Site directed mutagenesis. Mutations were introduced into the same pmaxFP-Yellow-PRL KIR2DL2 and KIR2DL4 promoter constructs using the QuickChange Multi Site-Directed Mutagenesis Kit (Stratagene, La Jolla, Calif.). The changes include a […]→[…] mutation at −78→−71 in the Sp1 site, a CCC→ACA mutation at −61→−59 in the Ets1 site, or both, in the KIR2DL2 promoter, and a TTT→GGG mutation at −73→−71 in the Ets1 site, a CCC→ACA mutation at −61→−59 in the Ets1 site, or both, in the KIR2DL4 promoter. A separate G→A mutation in the AML site was also introduced into both promoters at −98 (16; 17). The constructs were transfected in to PHA stimulated, 5-azaC treated T cells as above. Controls included transfection with pmaxGFP.
Effects of 5-azaC on KIR transcriptional activator-DNA interactions. […]

KIR2DL4 promoter = KIR2DL4 promoter methylation, bisulfite sequencing and MS-PCR
Procedure: (§1) Bisulfite conversion and DNA sequencing. Genomic DNA was isolated from T cells using FlexiGene DNA Kits (QIAGEN) then treated with sodium bisulfite as described (15). HotStar Taq (QIAGEN) was used for amplification with the following conditions: initial incubation 95° C. 15 min, then 45 cycles 95° C. 30 s, 52° C. 30 s and 72° C. 30 s. PCR products were purified using QIAEXII Gel Extraction Kits (QIAGEN), and cloned using the pGEM-T Easy Vector System (Promega, Madison, Wis.). 10 cloned fragments were sequenced for each sample by the University of Michigan Sequencing Core.
(§2) Real-time quantitative methylation specific PCR (MSP). Three real-time MSP assays were developed for detection and quantitation of each KIR gene: one specific for the bisulfite-converted methylated sequence, one for the bisulfite-converted unmethylated sequence, and a loading control comprising primers to an adjacent bisulfite-converted sequence lacking CG pairs. MSP reactions were performed using QuantiTect SYBR Green PCR kits (QIAGEN) according to the manufacture's protocol using […] of each primer, 100 ng converted DNA and the Rotor-Gene 3000. […] Levels of amplified methylated and unmethylated fragments were standardized to the control fragment, and the methylation index calculated as […]

KIR2DL2 promoter [2] = assay: KIR2DL2 promoter methylation, bisulfite sequencing and MS-PCR
Procedure: as §1, §2

[3] = CD4+ and CD8+ cells, 5-azaC treated vs untreated

Question: Which “increase of KIR2DL2 promoter function” value (KIR2DL2 promoter [1]; 5-azaC treated vs untreated T cells, FIG. 29b, p<0.005) does the source give for Nc1ncn([C@@H]2O[C@H](CO)[C@@H](O)[C@H]2O)c(=O)n1 [5-azaC, 5-azacytidine] here?
Answer: Its value is 3-4 fold.

Question: What about the “increase of expression of the unmodified KIR2DL2 construct” value (KIR2DL2 promoter [1]; relative to untreated T cells, FIG. 29c) of the same compound?
Answer: The value was about 2 fold.

Question: What about the “KIR2DL4 promoter methylation pattern, bisulfite sequencing” value (KIR2DL4 promoter; [3]) of the same compound?
Answer: Its value is “generalized demethylation in the treated cells”.

Question: What about the “KIR2DL4 promoter methylation index, MS-PCR” value (KIR2DL4 promoter; CD4+ and CD8+ subsets, p<0.001) of the same compound?
Answer: The value was “demethylates these regions in all 5 subjects”.

Question: What about the “KIR2DL2 promoter methylation pattern, bisulfite sequencing” value (KIR2DL2 promoter [2]; [3]) of the same compound?
Answer: The value was “generalized demethylation throughout the region”.

Question: What about the “KIR2DL2 promoter methylation index, MS-PCR” value (KIR2DL2 promoter [2]; CD4+ and CD8+ subsets, p<0.001) of the same compound?
Answer: The value was “demethylates these regions in all 5 subjects”.

From patent publication US20110256121A1, “METHODS AND KITS FOR DIAGNOSING OR MONITORING AUTOIMMUNE AND CHRONIC INFLAMMATORY DISEASES” (THE REGENTS OF THE UNIVERSITY OF MICHIGAN, priority 2008, published 2011)
